Data reported in patent publication US8658202B2, “Coated drug delivery formulations” (Western University of Health Sciences, priority 2001, dated 2014).
Where two headings read alike, the source gives them in different places. Marks after values point to notes of the source that are not given here.

Key:
[1] = Pharmacokinetics of halofantrine enantiomers after oral gavage of proliposomal or control suspension; type: in vivo, Sprague-Dawley rats; conditions: 7 mg/kg oral gavage, rats; for AUC: AUC0-24, mean±SD; for Cmax / Tmax: mean±SD
Experimental: The pharmacokinetic parameters of the enteric coated proliposomal formulation of halofantrine were evaluated as follows. The proliposomal product was prepared as a suspension in 0.78% methylcellulose. A non-liposomal suspension formulation (control) was prepared by dispersing halofantrine powder in 1% methylcellulose. Sprague-Dawley rats were cannulated at the right jugular vein under halothane anesthesia. After an overnight rest, the rats were given 7 mg/kg of a halofantrine suspension as either the proliposomal (7 rats) or control (6 rats) formulation by oral gavage. Serial blood samples were obtained from the cannula until 48 h post-dose. A stereospecific HPLC assay was used to measure plasma concentration of halofantrine enantiomers. Noncompartmental pharmacokinetic methods were used to determine AUC0-24, Cmax and tmax. Student's unpaired t-test was used to assess significance of differences.

[2] = Comparison of preparation methods: texture of product; type: physicochemical; conditions: 12% drug, 63% lecithin (DMPC)
From the text: (§1) One embodiment of the present invention was compared to a control method for producing pharmaceutical formulations. The control method used in the following examples is disclosed by Ganter in U.S. Pat. No. 5,635,206, herein incorporated by reference, at Example 1, except that the percentage of water used was 5% and 0%. To exemplar drugs which are poorly water soluble were used: glyburide and benzocaine.
(§2) The following tables summarize the protocol used and the results.

[3] = Comparison of preparation methods: absorbance in the aqueous phase (incorporation with the lipid); type: physicochemical
From the text: as §1, §2
Some embodiments of the present invention have one or more of the aforementioned advantages.

[4] = Comparison of preparation methods: particle size; type: physicochemical
From the text: as §1, §2

[5] = Control: halofantrine powder in 1% methylcellulose
[6] = Liposome: enteric coated proliposomal formulation

SMILES	Texture ([2]; Applicant's Method)	Texture ([2]; Control Method With 0% Water)	Texture ([2]; Control Method With 5% Water)	Absorbance ([3]; Applicant's Method)	Absorbance ([3]; Control Method With 0% Water)	Absorbance ([3]; Control Method With 5% Water)	Particle Size ([4]; Applicant's Method) [μm]	Particle Size ([4]; Control Method With 0% Water) [μm]	Particle Size ([4]; Control Method With 5% Water) [μm]	other results
CCCCN(CCCC)CCC(O)c1cc2c(Cl)cc(Cl)cc2c2cc(C(F)(F)F)ccc12 (single isomer, unassigned; (+)) [(+)-HF, halofantrine]	–	–	–	–	–	–	–	–	–	AUC [1, 5]: 5.2 ± 0.81^b μg × h/mL; Cmax [1, 5]: 391 ± 59.2^b ng/mL; Tmax [1, 5]: 7.0 ± 2.3 h; AUC ([1]; Liposome: enteric coated proliposomal formulation in 0.78% methylcellulose): 7.7 ± 1.8^a,b μg × h/mL; Cmax [1, 6]: 722 ± 170^a,b ng/mL; Tmax [1, 6]: 4.1 ± 2.3 h
CCCCN(CCCC)CCC(O)c1cc2c(Cl)cc(Cl)cc2c2cc(C(F)(F)F)ccc12 (single isomer, unassigned; (-)) [(−)-HF, halofantrine]	–	–	–	–	–	–	–	–	–	AUC ([1]; Sprague-Dawley, rat, plasma, po, 7 mg/kg, Control: halofantrine powder in 1% methylcellulose, read-out: AUC): 1900 ± 530 ng·h/mL; Cmax ([1]; Sprague-Dawley, rat, plasma, po, 7 mg/kg, Control: halofantrine powder in 1% methylcellulose, read-out: Cmax): 196 ± 42.3 ng/mL; Tmax ([1]; Sprague-Dawley, rat, plasma, po, 7 mg/kg, Control: halofantrine powder in 1% methylcellulose, read-out: Tmax): 4.6 ± 2.1 h; AUC ([1]; Sprague-Dawley, rat, plasma, po, 7 mg/kg, Liposome: enteric coated proliposomal formulation in 0.78% methylcellulose, read-out: AUC): 2600 ± 660 ng·h/mL; Cmax ([1]; Sprague-Dawley, rat, plasma, po, 7 mg/kg, Liposome: enteric coated proliposomal formulation, read-out: Cmax): 360 ± 80.5 ng/mL; Tmax ([1]; Sprague-Dawley, rat, plasma, po, 7 mg/kg, Liposome: enteric coated proliposomal formulation, read-out: Tmax): 4 ± 1.3 h
CCOC(=O)c1ccc(N)cc1 [Benzocaine, benzocaine]	Powder	Clear Solution	Clear Solution	3.7377	3.6130	3.6030	9.163	3.830	1.190	–
COc1ccc(Cl)cc1C(=O)NCCc1ccc(S(=O)(=O)NC(=O)NC2CCCCC2)cc1 [Glyburide, glyburide]	Powder	Milky	Milky	1.9446	3.9141	3.8177	8.638	5.978	2.544	–
